Consider two compounds from paper PMC10578352, “Identification of a Protein Arginine Methyltransferase 7 (PRMT7)/Protein Arginine Methyltransferase 9 (PRMT9) Inhibitor” (Journal of Medicinal Chemistry, 2023).

One data set concerns the target T1, human recombinant PRMT9 (Homo sapiens, UniProt Q6P2P2).
T1 construct: human recombinant PRMT9 (2–845; N-terminal FLAG-tag, C-terminal His6-tag); FLAG (N); His6 (C); purchased BPS BioScience 79124
T1 sequence (Q6P2P2 2-845): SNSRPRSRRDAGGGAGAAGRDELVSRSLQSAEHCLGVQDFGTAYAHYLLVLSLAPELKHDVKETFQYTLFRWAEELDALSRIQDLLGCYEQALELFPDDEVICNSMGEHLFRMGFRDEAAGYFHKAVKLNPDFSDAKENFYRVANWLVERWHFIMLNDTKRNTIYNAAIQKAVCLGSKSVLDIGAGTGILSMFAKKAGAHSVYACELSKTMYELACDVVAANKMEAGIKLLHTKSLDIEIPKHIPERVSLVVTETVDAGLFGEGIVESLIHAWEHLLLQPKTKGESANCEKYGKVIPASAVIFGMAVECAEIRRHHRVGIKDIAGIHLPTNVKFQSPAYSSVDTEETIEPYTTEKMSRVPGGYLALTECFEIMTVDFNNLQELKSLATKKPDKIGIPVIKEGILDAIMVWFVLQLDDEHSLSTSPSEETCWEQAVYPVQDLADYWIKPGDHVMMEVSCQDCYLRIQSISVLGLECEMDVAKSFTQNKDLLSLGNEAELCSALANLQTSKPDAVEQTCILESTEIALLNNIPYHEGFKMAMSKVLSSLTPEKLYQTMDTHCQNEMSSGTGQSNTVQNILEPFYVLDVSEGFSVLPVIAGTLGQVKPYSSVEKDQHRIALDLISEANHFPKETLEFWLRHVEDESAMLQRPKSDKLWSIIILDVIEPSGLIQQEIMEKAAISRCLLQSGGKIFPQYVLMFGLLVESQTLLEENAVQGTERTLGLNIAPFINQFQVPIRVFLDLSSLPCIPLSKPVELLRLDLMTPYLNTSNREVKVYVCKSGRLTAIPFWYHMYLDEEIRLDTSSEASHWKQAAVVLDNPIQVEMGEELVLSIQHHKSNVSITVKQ
Briefly: AlphaLISA PRMT9 activity assay (modified BPS kit, biotinylated SF3B2 peptide). Format: biochemical. To be noted: for IC50: PRMT9 0.105 μM, biotinylated SF3B2 (500–519) peptide 100 nM, SAM 25 μM. The procedure:
Accordingly, all the enzymatic inhibition data were obtained by performing the assays in these optimized conditions.
The reaction was incubated for 60 min. Afterward, in each well, 5 μL of a 1:100 dilution of Primary antibody 28 (BPS BioScience, #52140Z3) in Detection buffer (BPS BioScience) and 5 μL of anti-Rabbit acceptor beads (PerkinElmer, #AL104C) were added to obtain a final concentration of 20 μg/mL.
For each incubation step, the OptiPlate was sealed with a protective foil to prevent evaporation and contamination. Donor and Acceptor beads were added to the mixture in subdued light.
The 100% activity (positive control) was reached using vehicle (DMSO), while 0% activity (negative control) was obtained without the protein. Data were analyzed by using Excel and Prism software. Values obtained for each compound are mean ± SD determined for three separate experiments.
For orientation: In Alpha technology, singlet oxygen from a donor bead excites a nearby acceptor bead.

Details of data set [1]: method as in PMID 35482954. As to conditions: cited from earlier work.
For data set [2], the system named is PRMT4-catalyzed arginine methylation in MCF-7 cells. Further details: method as in PMID 35482954. To be noted: cited from earlier work.
The next data set concerns MCF-7 cells. Further details: method as in PMID 35482954. As to conditions: cited from earlier work.
Another data set deals with T2, PRMT4 (Homo sapiens, UniProt Q86X55).
T2 construct: PRMT4 (residues 2–608, C-terminus); with an N-terminal GST-tag; GST (N); purchased Reaction Biology Corporation
T2 sequence (Q86X55 2-608): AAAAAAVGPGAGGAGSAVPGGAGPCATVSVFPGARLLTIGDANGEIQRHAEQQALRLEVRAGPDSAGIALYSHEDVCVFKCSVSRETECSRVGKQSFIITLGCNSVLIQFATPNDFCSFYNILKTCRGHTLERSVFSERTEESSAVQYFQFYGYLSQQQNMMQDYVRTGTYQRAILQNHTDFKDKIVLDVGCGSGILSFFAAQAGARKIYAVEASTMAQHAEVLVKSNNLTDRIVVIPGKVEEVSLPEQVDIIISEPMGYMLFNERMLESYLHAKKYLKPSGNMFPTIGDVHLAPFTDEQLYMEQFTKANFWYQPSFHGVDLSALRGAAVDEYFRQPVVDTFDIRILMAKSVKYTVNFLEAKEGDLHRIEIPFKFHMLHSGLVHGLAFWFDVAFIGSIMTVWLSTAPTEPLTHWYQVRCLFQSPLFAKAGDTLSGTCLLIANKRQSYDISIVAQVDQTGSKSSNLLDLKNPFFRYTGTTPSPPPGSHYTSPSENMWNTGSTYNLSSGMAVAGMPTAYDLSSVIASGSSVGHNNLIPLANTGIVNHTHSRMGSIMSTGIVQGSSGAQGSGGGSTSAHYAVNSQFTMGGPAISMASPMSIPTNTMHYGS
Briefly: HotSpot radioisotope-based filter assay, PRMT4. It counts as biochemical. To be noted: 5 μM histone H3, 3H-SAM 1 μM. The procedure:
(§1) Then, ^3H-SAM (final concentration of 1 μM) was delivered into the reaction mixture to initiate the reaction. After incubation for 60 min at 30 °C, the reaction mixture was delivered to filter-paper for detection (as assessed by scintillation). Data were analyzed using Excel and GraphPad Prism 6.0 software (GraphPad Software Inc., San Diego, CA) for IC50 curve fits using sigmoidal dose vs response - variable slope (four parameters) equations.

In the next data set the target is T3, PRMT5/MEP50 complex (Homo sapiens, UniProt O14744).
T3 construct: residues PRMT5 2–637, C-terminus, and MEP50 2–342, C-terminus; FLAG (N); purchased Reaction Biology Corporation
T3 sequence (O14744 2-637): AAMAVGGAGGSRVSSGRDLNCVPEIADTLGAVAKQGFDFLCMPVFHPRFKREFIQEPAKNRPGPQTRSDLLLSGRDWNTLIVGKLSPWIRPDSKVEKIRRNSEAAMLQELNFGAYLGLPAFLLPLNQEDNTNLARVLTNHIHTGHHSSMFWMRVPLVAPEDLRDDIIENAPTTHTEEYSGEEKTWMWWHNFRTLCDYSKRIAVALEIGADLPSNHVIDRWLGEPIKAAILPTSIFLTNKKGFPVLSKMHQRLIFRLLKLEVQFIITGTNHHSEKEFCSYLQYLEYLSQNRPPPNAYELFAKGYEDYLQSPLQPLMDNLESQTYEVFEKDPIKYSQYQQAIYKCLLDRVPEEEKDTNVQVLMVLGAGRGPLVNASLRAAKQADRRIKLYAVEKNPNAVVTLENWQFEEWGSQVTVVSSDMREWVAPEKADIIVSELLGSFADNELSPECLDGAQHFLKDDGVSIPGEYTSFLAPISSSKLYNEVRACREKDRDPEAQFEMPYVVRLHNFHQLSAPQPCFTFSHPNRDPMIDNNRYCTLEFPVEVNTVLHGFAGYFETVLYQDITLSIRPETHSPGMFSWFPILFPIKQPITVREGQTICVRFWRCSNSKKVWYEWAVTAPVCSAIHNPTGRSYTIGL
T3 sequence (Q9BQA1 2-342 partner limits assumed): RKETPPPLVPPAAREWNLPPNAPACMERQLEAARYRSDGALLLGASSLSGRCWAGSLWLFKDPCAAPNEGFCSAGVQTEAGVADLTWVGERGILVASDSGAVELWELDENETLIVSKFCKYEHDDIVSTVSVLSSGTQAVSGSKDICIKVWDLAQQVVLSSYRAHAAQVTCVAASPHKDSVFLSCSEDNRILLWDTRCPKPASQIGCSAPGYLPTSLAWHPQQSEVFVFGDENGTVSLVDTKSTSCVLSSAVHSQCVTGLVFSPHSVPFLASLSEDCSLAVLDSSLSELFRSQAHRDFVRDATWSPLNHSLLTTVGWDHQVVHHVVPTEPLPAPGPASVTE
Put plainly: HotSpot radioisotope-based filter assay, PRMT5. Format: biochemical. As to conditions: 5 μM histone H2A, 3H-SAM 1 μM. The procedure: as §1

In a further data set the target is T4, PRMT1 (Homo sapiens, UniProt Q99873).
T4 construct: PRMT1 (residues 2–371, C-terminus); with an N-terminal GST-tag; GST (N); purchased Reaction Biology Corporation
T4 sequence (Q99873 2-371): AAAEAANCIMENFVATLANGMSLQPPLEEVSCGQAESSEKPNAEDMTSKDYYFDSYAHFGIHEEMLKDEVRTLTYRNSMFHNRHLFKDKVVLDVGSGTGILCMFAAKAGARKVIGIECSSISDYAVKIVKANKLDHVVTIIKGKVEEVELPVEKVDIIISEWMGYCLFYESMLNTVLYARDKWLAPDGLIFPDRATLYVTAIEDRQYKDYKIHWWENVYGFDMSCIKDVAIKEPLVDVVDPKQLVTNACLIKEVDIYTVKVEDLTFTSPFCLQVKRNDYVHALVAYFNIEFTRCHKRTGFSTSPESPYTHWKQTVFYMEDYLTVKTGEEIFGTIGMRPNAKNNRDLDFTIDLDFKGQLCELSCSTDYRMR
Put plainly: HotSpot radioisotope-based filter assay, PRMT1. To be noted: 5 μM histone H4, 3H-SAM 1 μM. It counts as biochemical. How it is done:
as §1

In another data set the target is T5, PRMT6 (Homo sapiens, UniProt Q96LA8).
T5 construct: PRMT6 (residues 2–375, C-terminus); with an N-terminal GST-tag; GST (N); purchased Reaction Biology Corporation
T5 sequence (Q96LA8 2-375): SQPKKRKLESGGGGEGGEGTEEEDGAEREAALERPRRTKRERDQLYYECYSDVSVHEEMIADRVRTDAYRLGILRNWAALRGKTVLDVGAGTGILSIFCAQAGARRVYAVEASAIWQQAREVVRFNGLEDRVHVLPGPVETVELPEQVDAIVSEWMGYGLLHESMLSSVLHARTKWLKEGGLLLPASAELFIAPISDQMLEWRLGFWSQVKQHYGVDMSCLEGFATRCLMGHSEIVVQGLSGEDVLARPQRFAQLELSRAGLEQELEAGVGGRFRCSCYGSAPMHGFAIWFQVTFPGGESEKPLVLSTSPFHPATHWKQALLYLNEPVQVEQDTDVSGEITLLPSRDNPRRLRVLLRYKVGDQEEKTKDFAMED
Briefly: HotSpot radioisotope-based filter assay, PRMT6. Format: biochemical. As to conditions: 5 μM GST-GAR, 3H-SAM 1 μM. The procedure: as §1

A further data set deals with T6, PRMT8 (Homo sapiens, UniProt Q9NR22).
T6 construct: (residues 61–394, C-terminus); with C- and N-terminal His-tags; His (N); His (C); purchased Reaction Biology Corporation
T6 sequence (Q9NR22 61-394): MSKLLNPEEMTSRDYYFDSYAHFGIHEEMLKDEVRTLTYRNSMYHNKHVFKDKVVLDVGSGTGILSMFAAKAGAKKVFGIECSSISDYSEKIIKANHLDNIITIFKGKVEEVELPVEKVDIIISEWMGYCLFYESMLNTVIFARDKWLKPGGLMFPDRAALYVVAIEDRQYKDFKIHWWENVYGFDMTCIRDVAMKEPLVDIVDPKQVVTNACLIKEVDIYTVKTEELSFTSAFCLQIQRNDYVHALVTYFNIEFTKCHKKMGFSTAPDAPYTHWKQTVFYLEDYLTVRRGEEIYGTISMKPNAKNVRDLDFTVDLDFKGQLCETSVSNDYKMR
Put plainly: HotSpot radioisotope-based filter assay, PRMT8. Format: biochemical. As to conditions: 5 μM histone H4, 3H-SAM 1 μM. How it is done: as §1

The next data set has as its target T7, PRMT3 (Homo sapiens, UniProt O60678).
T7 construct: PRMT3 (residues 2–531, C-terminus); with an N-terminal His-tag; His (N); purchased Reaction Biology Corporation
Briefly: HotSpot radioisotope-based filter assay, PRMT3. Format: biochemical. To be noted: 5 μM histone H4, 3H-SAM 1 μM. The procedure:
as §1

The target in a further data set is T8, PRMT7 (Homo sapiens, UniProt Q9NVM4).
T8 construct: PRMT7 (residues 2–692, C-terminus); with an N-terminal His-tag; His (N); purchased Reaction Biology Corporation
T8 sequence (Q9NVM4 2-692): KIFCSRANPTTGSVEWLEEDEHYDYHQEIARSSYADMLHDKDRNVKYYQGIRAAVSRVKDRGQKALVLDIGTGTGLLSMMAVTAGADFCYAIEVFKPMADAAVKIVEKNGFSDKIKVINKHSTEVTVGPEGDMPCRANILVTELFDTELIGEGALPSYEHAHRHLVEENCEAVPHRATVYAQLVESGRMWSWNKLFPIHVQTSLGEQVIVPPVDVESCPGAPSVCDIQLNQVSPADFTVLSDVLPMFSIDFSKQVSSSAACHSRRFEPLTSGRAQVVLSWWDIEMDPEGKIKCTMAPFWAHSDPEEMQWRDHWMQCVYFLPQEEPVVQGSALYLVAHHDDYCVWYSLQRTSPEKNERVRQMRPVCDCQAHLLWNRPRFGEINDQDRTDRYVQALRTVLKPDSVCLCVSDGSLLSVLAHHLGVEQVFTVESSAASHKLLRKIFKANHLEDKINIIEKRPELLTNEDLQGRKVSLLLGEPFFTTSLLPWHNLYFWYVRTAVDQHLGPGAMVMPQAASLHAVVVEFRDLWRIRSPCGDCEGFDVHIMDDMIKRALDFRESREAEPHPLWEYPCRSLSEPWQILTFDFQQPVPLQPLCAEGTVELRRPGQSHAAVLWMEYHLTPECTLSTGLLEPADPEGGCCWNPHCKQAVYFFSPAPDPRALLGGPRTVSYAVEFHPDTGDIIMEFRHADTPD
Briefly: HotSpot radioisotope-based filter assay, PRMT7. As to conditions: 5 μM GST-GAR, 3H-SAM 1 μM. Format: biochemical. The procedure:
as §1

SMILES strings stand for the structures. Where only a bound is given, the exact number is not on record here.

The term IC50 denotes the concentration that gives 50% inhibition.

T7 sequence (O60678 2-531): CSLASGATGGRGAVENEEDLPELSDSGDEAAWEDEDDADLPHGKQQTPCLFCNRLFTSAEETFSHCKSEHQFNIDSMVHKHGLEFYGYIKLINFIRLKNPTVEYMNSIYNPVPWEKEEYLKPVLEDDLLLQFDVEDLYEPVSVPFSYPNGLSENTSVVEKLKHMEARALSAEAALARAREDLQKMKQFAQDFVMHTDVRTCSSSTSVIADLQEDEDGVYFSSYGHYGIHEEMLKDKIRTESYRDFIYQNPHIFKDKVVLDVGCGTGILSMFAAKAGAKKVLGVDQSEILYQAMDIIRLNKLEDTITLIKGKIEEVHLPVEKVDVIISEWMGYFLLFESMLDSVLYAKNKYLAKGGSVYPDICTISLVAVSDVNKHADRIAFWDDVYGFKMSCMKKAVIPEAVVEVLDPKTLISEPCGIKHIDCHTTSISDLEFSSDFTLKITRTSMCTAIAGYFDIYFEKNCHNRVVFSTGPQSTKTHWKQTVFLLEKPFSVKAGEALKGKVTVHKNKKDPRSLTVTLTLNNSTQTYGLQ

Turning to `COC(=O)c1cc(O)c2cc(NC(=O)NCCCCNC(=N)NC/C=C/[C@H]3O[C@@H](n4cnc5c(N)ncnc54)[C@H](O)[C@@H]3O)ccc2c1` [1h], the IC50 at human recombinant PRMT9 came out at 9.3 µM. Also, the cell permeability result in data set [1] is “low”. Moreover, in data set [2], the “PRMT4-catalyzed arginine methylation levels” value is on record as “evident reduction”. Further, the proliferation result in the data set with MCF-7 cells is listed as “marked reduction”.
As for `COC(=O)c1cc(O)c2cc(NC(=O)NCCNC(=N)NC[C@H]3O[C@@H](n4cnc5c(N)ncnc54)[C@H](O)[C@@H]3O)ccc2c1` [1i, Methyl 6-(3-(2-(3-(((2R,3S,4R,5R)-5-(6-Amino-9H-purin-9-yl)-3,4-dihydroxytetrahydrofuran-2-yl)methyl)guanidino)ethyl)ureido)-4-hydroxy-2-naphthoate], the IC50 is 22.8 µM against PRMT4; 9.4 µM at PRMT5/MEP50 complex; 2.47 µM at human recombinant PRMT9; more than 100 µM at PRMT1; 70 µM against PRMT6; 42 µM against PRMT8. The IC50 at PRMT3 was more than 100 µM; against PRMT7, 0.54 µM. The “reduction in potency against PRMT9 compared to 1a” value on human recombinant PRMT9 (AlphaLISA IC50 values) stood at 3 fold.
